Key:
MAGL = MAGL (Mus musculus (Mouse), UniProt O35678); experiment: In vitro competitive activity-based protein profiling (FP-Rh), mouse MAGL; format: biochemical; conditions: mouse brain membrane proteome
Description: (§1) In Vitro Competitive Activity-Based Protein Profiling.
(§2) Proteomes (mouse brain membrane fraction or cell lysates) ([…], 1.0 mg/mL total protein concentration) were preincubated with varying concentrations of inhibitors at 37° C. After 30 min, FP-Rh (1.0 μL, 50 μM in DMSO) was added and the mixture was incubated for another 30 min at 37° C. Reactions were quenched with SDS loading buffer (50 μL—4×) and run on SDS-PAGE.

FAAH = FAAH (Mus musculus (Mouse), UniProt O08914); experiment: In vitro competitive activity-based protein profiling (FP-Rh), mouse FAAH; format: biochemical; conditions: mouse brain membrane proteome
Description: as §1, §2

ABHD6 = ABHD6 (Mus musculus (Mouse), UniProt Q8R2Y0); experiment: In vitro competitive activity-based protein profiling (FP-Rh), mouse ABHD6; format: biochemical; conditions: mouse brain membrane proteome
Description: as §1, §2

Mouse brain MAGL = Mouse brain MAGL (Mus musculus (Mouse), UniProt O35678); experiment: Mouse brain proteomes from inhibitor treated mice (oral gavage, ABPP of brain MAGL); format: in vivo; conditions: for ED50: po; for Mouse brain MAGL (% inhibition at 5 mg/kg, p.o.) / Mouse brain MAGL (% inhibition at 20 mg/kg, p.o.): 4 h following administration
Description: Preparation of Mouse Brain Proteomes from Inhibitor Treated Mice.
Inhibitors were administered to wild-type C57Bl/6J by oral gavage in a vehicle of polyethylene glycol.

Human MAGL = Human MAGL (Homo sapiens (Human), UniProt Q99685); experiment: Competitive ABPP with recombinant human MAGL expressed in HEK293T cells; format: biochemical; conditions: hMAGL in HEK293T cell lysates
Description: as §2
Recombinant Expression of Human MAGL in HEK293T Cells.
Cell lysates were diluted with mock proteomes for use in competitive ABPP experiments.

Chain of ABHD6 (Q8R2Y0 whole entry): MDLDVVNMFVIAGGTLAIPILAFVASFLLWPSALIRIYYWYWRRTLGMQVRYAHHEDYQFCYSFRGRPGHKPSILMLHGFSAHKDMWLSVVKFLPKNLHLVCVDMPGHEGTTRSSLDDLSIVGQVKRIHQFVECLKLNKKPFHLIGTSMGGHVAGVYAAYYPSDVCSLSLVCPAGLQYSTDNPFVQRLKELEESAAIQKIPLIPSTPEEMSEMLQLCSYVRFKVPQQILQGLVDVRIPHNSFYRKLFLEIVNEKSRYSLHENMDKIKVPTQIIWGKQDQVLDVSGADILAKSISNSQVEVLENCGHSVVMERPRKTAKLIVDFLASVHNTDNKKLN
Chain of Human MAGL (Q99685 whole entry): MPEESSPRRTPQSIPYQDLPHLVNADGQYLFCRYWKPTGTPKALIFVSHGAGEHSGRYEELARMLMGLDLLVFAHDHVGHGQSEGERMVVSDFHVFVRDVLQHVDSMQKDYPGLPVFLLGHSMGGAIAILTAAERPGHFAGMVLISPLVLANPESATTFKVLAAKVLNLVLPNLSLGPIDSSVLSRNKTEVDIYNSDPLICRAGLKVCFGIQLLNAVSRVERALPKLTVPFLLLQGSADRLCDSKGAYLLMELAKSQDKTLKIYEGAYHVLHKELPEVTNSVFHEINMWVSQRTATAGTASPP
Chain of FAAH (O08914 whole entry): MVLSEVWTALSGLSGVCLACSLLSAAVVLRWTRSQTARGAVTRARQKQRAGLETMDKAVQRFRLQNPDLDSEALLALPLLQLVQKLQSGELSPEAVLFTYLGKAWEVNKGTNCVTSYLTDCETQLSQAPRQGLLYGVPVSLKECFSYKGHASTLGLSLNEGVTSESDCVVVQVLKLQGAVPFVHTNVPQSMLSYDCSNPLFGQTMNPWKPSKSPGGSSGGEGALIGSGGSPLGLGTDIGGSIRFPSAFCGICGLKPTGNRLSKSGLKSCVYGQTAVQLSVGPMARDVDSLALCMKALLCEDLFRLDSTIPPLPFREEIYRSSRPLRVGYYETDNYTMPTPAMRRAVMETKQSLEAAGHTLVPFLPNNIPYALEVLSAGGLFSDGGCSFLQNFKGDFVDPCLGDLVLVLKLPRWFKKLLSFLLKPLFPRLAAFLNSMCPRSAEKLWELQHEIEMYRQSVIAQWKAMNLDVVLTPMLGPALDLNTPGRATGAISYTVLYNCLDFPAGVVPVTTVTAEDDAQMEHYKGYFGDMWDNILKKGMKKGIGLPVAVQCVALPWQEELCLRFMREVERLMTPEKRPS
Chain of MAGL (O35678 whole entry): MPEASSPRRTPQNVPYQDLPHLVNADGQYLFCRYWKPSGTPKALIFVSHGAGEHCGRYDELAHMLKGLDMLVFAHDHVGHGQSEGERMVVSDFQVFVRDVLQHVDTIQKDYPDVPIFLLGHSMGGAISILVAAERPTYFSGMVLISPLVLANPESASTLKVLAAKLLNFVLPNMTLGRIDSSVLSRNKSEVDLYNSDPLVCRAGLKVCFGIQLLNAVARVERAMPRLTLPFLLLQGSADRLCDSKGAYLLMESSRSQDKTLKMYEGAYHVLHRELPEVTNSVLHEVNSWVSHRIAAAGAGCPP
Chain of Mouse brain MAGL (O35678 whole entry): as above

| Structure (SMILES) | IC50 (MAGL; competitive ABPP (Table 7)) [nM] | IC50 (FAAH; competitive ABPP (Table 7)) [nM] | IC50 (ABHD6; competitive ABPP (Table 7)) [nM] | ED50 (Mouse brain MAGL) [mg/kg] | Mouse brain MAGL (% inhibition at 5 mg/kg, p.o.) (Mouse brain MAGL) [%] | IC50 (MAGL; competitive ABPP) [nM] | IC50 (FAAH; competitive ABPP) [nM] | IC50 (ABHD6; competitive ABPP) [nM] | Mouse brain MAGL (% inhibition at 20 mg/kg, p.o.) (Mouse brain MAGL) [%] | IC50 (Human MAGL) [nM] |
| --- | --- | --- | --- | --- | --- | --- | --- | --- | --- | --- |
| O=C(OC(C(F)(F)F)C(F)(F)F)N1CCN(Cc2cccc(F)c2N2CCOCC2)CC1 [Example 9d, 1,1,1,3,3,3-hexafluoropropan-2-yl 4-[[3-fluoro-2-(morpholin-4-yl)phenyl]methyl]piperazine-1-carboxylate] | < 100 | > 10000 | > 1000 | < 4 | – | – | – | – | – | – |
| CC(=O)NC1CCN(c2cc(Cl)ccc2CN2CCN(C(=O)OC(C(F)(F)F)C(F)(F)F)CC2)C1 (centres unmarked) [Example 9af, 1,1,1,3,3,3-hexafluoropropan-2-yl 4-(2-(3-acetamidopyrrolidin-1-yl)-4-chlorobenzyl)piperazine-1-carboxylate] | 100 to 1000 | > 10000 | > 1000 | < 4 | – | – | – | – | – | – |
| O=C(OC(C(F)(F)F)C(F)(F)F)N1CCN(Cc2ccc(Cl)cc2N2CCC3(CCOCC3)C2)CC1 [Example 9av, 1,1,1,3,3,3-hexafluoropropan-2-yl 4-(4-chloro-2-(8-oxa-2-azaspiro[4.5]decan-2-yl)benzyl)piperazine-1-carboxylate] | < 100 | > 10000 | > 1000 | – | 75 | – | – | – | – | – |
| CC(C)n1cc(CN2CCN(C(=O)OC(C(F)(F)F)C(F)(F)F)CC2)c(-c2ccccc2Cl)n1 [Example 10i, 1,1,1,3,3,3-hexafluoropropan-2-yl 4-[[3-(2-chlorophenyl)-1-(propan-2-yl)-1H-pyrazol-4-yl]methyl]piperazine-1-carboxylate] | < 100 | > 10000 | 100 to 1000 | – | 75 | – | – | – | – | – |
| CNC(=O)C(OC(=O)N1CCN(C(c2ccc(Cl)cc2)c2ccc(Cl)cc2)CC1)C(F)(F)F (centres unmarked) [Example 6j, 1,1,1-trifluoro-3-(methylamino)-3-oxopropan-2-yl 4-(bis(4-chlorophenyl)methyl)piperazine-1-carboxylate] | – | – | – | – | – | 100 to 1000 | > 10000 | < 100 | >95 | – |
| COC(c1ccc2c(c1)OCO2)(c1ccc2c(c1)OCO2)C1CCN(C(=O)OC(C(F)(F)F)C(F)(F)F)CC1 [Example 1b, 1,1,1,3,3,3-hexafluoropropan-2-yl 4-(bis(benzo[d][1,3]dioxol-5-yl)(methoxy)methyl)piperidine-1-carboxylate] | – | – | – | – | – | < 100 | > 10000 | 100 to 1000 | 13 | – |
| O=C(OC(C(F)(F)F)C(F)(F)F)N1CCN(Cc2ccc(Cl)cc2N2CCC3(CCNC3=O)CC2)CC1 [Example 9ax, 1,1,1,3,3,3-hexafluoropropan-2-yl 4-(4-chloro-2-(1-oxo-2,8-diazaspiro[4.5]decan-8-yl)benzyl)piperazine-1-carboxylate] | < 100 | > 10000 | > 1000 | – | 75 | – | – | – | – | – |
| Cc1ccccc1S(=O)(=O)N1CCN(C(=O)OC(C(F)(F)F)C(F)(F)F)CC1 [Example 4g, 1,1,1,3,3,3-hexafluoropropan-2-yl 4-(o-tolylsulfonyl)piperazine-1-carboxylate] | – | – | – | – | – | 100 to 1000 | > 10000 | 100 to 1000 | – | 100 to 1000 |
| O=C(OC(C(F)(F)F)C(F)(F)F)N1CCN(Cc2ccc(Cl)cc2N2Cc3cccnc3C2)CC1 [Example 9bh, 1,1,1,3,3,3-hexafluoropropan-2-yl 4-(4-chloro-2-(5H-pyrrolo[3,4-b]pyridin-6(7H)-yl)benzyl)piperazine-1-carboxylate] | < 100 | > 10000 | 100 to 1000 | – | 25 | – | – | – | – | – |
| CN(Cc1ccc2c(c1)OCO2)C(=O)OC(C(F)(F)F)C(F)(F)F [Example 3i, 1,1,1,3,3,3-hexafluoropropan-2-yl(benzo[d][1,3]dioxol-5-ylmethyl)-(methyl)carbamate] | – | – | – | – | – | 100 to 1000 | > 10000 | > 1000 | – | 100 to 1000 |
| O=C(OC(C(F)(F)F)C(F)(F)F)N1CCN(S(=O)(=O)c2ccccc2)CC1 [Example 4a, 1,1,1,3,3,3-hexafluoropropan-2-yl 4-(phenylsulfonyl)piperazine-1-carboxylate] | – | – | – | – | – | 100 to 1000 | > 10000 | 100 to 1000 | – | 100 to 1000 |
| O=C(OC(C(F)(F)F)C(F)(F)F)N1CCN(S(=O)(=O)c2cccc(C(F)(F)F)c2)CC1 [Example 4i, 1,1,1,3,3,3-hexafluoropropan-2-yl 4-((3-(trifluoromethyl)phenyl)-sulfonyl)piperazine-1-carboxylate] | – | – | – | – | – | 100 to 1000 | > 10000 | > 1000 | – | 100 to 1000 |
| O=C(OC(C(F)(F)F)C(F)(F)F)N1CCC(=C(c2ccc3c(c2)OCO3)c2ccc3c(c2)OCO3)CC1 [Example 1d, 1,1,1,3,3,3-hexafluoropropan-2-yl 4-(bis(benzo[d][1,3]dioxol-5-yl)methylene)piperidine-1-carboxylate] | – | – | – | – | – | < 100 | > 10000 | 100 to 1000 | – | < 100 |
| N#Cc1ccc(S(=O)(=O)N2CCN(C(=O)OC(C(F)(F)F)C(F)(F)F)CC2)cc1 [Example 4d, 1,1,1,3,3,3-hexafluoropropan-2-yl 4-((4-cyanophenyl)sulfonyl)-piperazine-1-carboxylate] | – | – | – | – | – | 100 to 1000 | > 10000 | > 1000 | – | 100 to 1000 |
| O=C(OC(C(F)(F)F)C(F)(F)F)N1CCN(C(c2ccc3c(c2)OC(F)(F)O3)c2ccc3c(c2)OC(F)(F)O3)CC1 [Example 2f, 1,1,1,3,3,3-hexafluoropropan-2-yl 4-(bis(2,2-difluorobenzo[d][1,3]-dioxol-5-yl)methyl)piperazine-1-carboxylate] | – | – | – | – | – | < 100 | > 10000 | > 1000 | – | < 100 |
| Cc1ccc(S(=O)(=O)N2CCN(C(=O)OC(C(F)(F)F)C(F)(F)F)CC2)cc1 [Example 4b, 1,1,1,3,3,3-hexafluoropropan-2-yl 4-tosylpiperazine-1-carboxylate] | – | – | – | – | – | < 100 | > 10000 | 100 to 1000 | – | < 100 |
| Cc1cc(N2CCN(C(=O)OC(C(F)(F)F)C(F)(F)F)CC2)c2ccccc2n1 [Example 3h, 1,1,1,3,3,3-hexafluoropropan-2-yl 4-(2-methylquinolin-4-yl)piperazine-1-carboxylate] | – | – | – | – | – | > 1000 | > 10000 | > 1000 | – | < 100 |
| O=C(OC(C(F)(F)F)C(F)(F)F)N1CCN(C(c2ccc3c(c2)CCO3)c2ccc3c(c2)CCO3)CC1 [Example 2e, 1,1,1,3,3,3-hexafluoropropan-2-yl 4-(bis(2,3-dihydrobenzofuran-5-yl)methyl)piperazine-1-carboxylate] | – | – | – | – | – | < 100 | > 10000 | 100 to 1000 | – | < 100 |
| O=C(OC(C(F)(F)F)C(F)(F)F)N1CCN(Cc2cccc(Cl)c2N2CCCC2)CC1 [Example 9ar, 1,1,1,3,3,3-hexafluoropropan-2-yl 4-(3-chloro-2-(pyrrolidin-1-yl)benzyl)piperazine-1-carboxylate] | < 100 | > 10000 | > 1000 | – | 75 | – | – | – | – | – |
| O=C(OC(C(F)(F)F)C(F)(F)F)N1CCN(Cc2ccc(Cl)cc2N2CCN3CCC[C@@H]3C2)CC1 [Example 9bi, (R)-1,1,1,3,3,3-hexafluoropropan-2-yl 4-(4-chloro-2-(hexahydropyrrolo[1,2-a]pyrazin-2(1H)-yl)benzyl)piperazine-1-carboxylate] | < 100 | > 10000 | > 1000 | – | 50 | – | – | – | – | – |
| CS(=O)(=O)N1CCN(c2cc(Cl)ccc2CN2CCN(C(=O)OC(C(F)(F)F)C(F)(F)F)CC2)CC1 [Example 9bj, 1,1,1,3,3,3-hexafluoropropan-2-yl 4-(4-chloro-2-(4-(methylsulfonyl)piperazin-1-yl)benzyl)piperazine-1-carboxylate] | < 100 | > 10000 | 100 to 1000 | – | 75 | – | – | – | – | – |
| O=C(OC(C(F)(F)F)C(F)(F)F)N1CCN(Cc2ccc(-c3ccccc3)cc2C(=O)N2CCCC2)CC1 [Example 11y, 1,1,1,3,3,3-hexafluoropropan-2-yl 4-([4-phenyl-2-[(pyrrolidin-1-yl)carbonyl]phenyl]methyl)piperazine-1-carboxylate] | < 100 | > 10000 | > 1000 | – | 75 | – | – | – | – | – |
| O=C(OC(C(F)(F)F)C(F)(F)F)N1CCN(Cc2ccc(Cl)cc2N2CCC2)CC1 [Example 9ay, 1,1,1,3,3,3-hexafluoropropan-2-yl 4-(2-(azetidin-1-yl)-4-chlorobenzyl)piperazine-1-carboxylate] | < 100 | > 10000 | > 1000 | – | 50 | – | – | – | – | – |
